# Source: BindingDB's records for doi:10.1016/j.bmcl.2005.03.031 (Dartmouth College, 2005)
# Target: Nitric oxide synthase, inducible (Homo sapiens, UniProt P35228)
# Assay: Inhibition of inducible nitric oxide synthase in activated macrophages
# Nitric oxide synthase, inducible, sequence (P35228 whole entry): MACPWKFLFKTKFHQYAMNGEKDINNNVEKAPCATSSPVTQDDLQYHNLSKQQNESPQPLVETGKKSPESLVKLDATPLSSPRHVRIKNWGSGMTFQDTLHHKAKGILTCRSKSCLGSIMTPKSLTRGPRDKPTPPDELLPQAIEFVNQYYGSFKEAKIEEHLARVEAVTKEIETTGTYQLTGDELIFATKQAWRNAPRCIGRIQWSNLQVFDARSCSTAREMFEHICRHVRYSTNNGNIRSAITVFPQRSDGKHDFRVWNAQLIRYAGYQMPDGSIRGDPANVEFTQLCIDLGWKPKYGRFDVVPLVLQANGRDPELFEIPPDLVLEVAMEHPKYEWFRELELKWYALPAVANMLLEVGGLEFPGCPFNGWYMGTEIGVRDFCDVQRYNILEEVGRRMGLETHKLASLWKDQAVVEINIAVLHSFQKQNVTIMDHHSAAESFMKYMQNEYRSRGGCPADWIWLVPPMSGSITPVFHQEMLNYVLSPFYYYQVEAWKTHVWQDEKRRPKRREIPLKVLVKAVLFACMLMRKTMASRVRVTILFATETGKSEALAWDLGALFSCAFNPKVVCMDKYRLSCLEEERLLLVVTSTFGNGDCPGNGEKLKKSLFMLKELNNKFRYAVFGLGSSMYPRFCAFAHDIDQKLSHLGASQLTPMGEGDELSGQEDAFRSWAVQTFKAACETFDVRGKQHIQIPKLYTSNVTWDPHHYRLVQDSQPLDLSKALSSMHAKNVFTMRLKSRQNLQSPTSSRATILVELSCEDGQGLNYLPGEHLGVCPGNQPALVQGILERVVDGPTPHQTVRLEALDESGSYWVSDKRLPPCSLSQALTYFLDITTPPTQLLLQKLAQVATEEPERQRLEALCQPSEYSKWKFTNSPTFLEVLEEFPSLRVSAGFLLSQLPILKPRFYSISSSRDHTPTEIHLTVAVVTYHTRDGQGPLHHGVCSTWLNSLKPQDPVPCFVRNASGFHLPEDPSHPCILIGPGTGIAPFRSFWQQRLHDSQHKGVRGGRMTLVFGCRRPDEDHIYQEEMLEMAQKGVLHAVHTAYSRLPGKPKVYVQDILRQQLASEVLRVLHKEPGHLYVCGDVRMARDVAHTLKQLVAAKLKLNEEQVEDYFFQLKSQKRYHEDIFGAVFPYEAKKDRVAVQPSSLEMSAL
row,Compound,IC50
1,"CC1(C)CC[C@]2(C(=O)O)CC[C@]3(C)C(C(=O)CC4[C@@]5(C)C=CC(=O)C(C)(C)C5CC[C@]43C)C2C1 (stereo partly drawn) [(4aS,6aR,6bR,12aR)-2,2,6a,6b,9,9,12a-Heptamethyl-10,14-dioxo-1,3,4,5,6,6a,6b,7,8,8a,9,10,12a,12b,13,14,14a,14b-octadecahydro-2H-picene-4a-carboxylic acid]",3.3 µM
2,"CC1(C)CC[C@]2(C(=O)O)CC[C@]3(C)C(=CCC4[C@@]5(C)C=CC(=O)C(C)(C)C5CC[C@]43C)C2C1 (stereo partly drawn) [(4aS,6aS,6bR,12aR)-2,2,6a,6b,9,9,12a-Heptamethyl-10-oxo-1,3,4,5,6,6a,6b,7,8,8a,9,10,12a,12b,13,14b-hexadecahydro-2H-picene-4a-carboxylic acid]",5.6 µM
3,"CC1(C)CC[C@]2(C(=O)O)CC[C@]3(C)C(=CCC4[C@@]5(C)C=C(C#N)C(=O)C(C)(C)C5CC[C@]43C)C2C1 (stereo partly drawn) [(4aS,6aS,6bR,12aR)-11-Cyano-2,2,6a,6b,9,9,12a-heptamethyl-10-oxo-1,3,4,5,6,6a,6b,7,8,8a,9,10,12a,12b,13,14b-hexadecahydro-2H-picene-4a-carboxylic acid]",0.6 µM
4,"CC1(C)CC[C@]2(C(=O)O)CC[C@]3(C)C(=CC(=O)C4[C@@]5(C)C=C(C#N)C(=O)C(C)(C)C5CC[C@]43C)C2C1 (stereo partly drawn) [(4aS,6aS,6bR,12aS)-11-Cyano-2,2,6a,6b,9,9,12a-heptamethyl-10,13-dioxo-1,3,4,5,6,6a,6b,7,8,8a,9,10,12a,12b,13,14b-hexadecahydro-2H-picene-4a-carboxylic acid]",0.04 µM
5,CC1(C)CC[C@]2(C(=O)O)CC[C@]3(C)C(=CC[C@@H]4[C@@]5(C)CC[C@H](O)C(C)(C)[C@@H]5CC[C@]43C)[C@@H]2C1 [Oleanolic acid (OA)(Compound 1)],> 40 µM
6,CC1(C)CC[C@]2(C(=O)O)CC[C@]3(C)C(=CC[C@@H]4[C@@]5(C)CCC(=O)C(C)(C)[C@@H]5CC[C@]43C)[C@@H]2C1 [Oleanonic Acid],37 µM
